21 compounds from publication PMC5681660, “Reduced hepatitis B and D viral entry using clinically applied drugs as novel inhibitors of the bile acid transporter NTCP” (Scientific Reports, 2017) can be followed below.

Structures can show the parent of a compound that is named as a salt.

In the assay the target is T1, human NTCP (Homo sapiens, UniProt Q14973).
T1 sequence (Q14973 1-349): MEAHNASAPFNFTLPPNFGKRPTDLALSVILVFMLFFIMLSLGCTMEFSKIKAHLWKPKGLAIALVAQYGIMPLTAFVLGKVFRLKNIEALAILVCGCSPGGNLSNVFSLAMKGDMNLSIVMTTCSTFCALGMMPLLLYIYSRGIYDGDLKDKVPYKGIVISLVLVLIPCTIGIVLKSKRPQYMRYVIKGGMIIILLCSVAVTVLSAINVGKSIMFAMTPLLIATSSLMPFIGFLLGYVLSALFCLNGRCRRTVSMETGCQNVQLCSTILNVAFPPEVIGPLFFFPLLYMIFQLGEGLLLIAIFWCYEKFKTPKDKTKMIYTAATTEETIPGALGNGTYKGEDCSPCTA
Nature of the assay: Screening taurocholate uptake assay (96-well, [14C]taurocholate, 10 µM drug). Particulars: for B-score functional assay: screening taurocholate uptake, 10 µM drug.

The mark [1] stands for this setting: ranking over the functional and the binding screening assay.
[2] abbreviates: combined ranking of functional and binding screening assays.

`CC(C)OC(=O)C(C)(C)Oc1ccc(C(=O)c2ccc(Cl)cc2)cc1` [Fenofibrate] came in with a B-score functional assay of -0.159. Further, under setting [1], the Ranking score is listed as 212.979.

The compound `Cl.Cl.c1ccc2c(c1)CCCc1cc(NCCN3CCOCC3)nnc1-2` showed a B-score functional assay of -1.983. For the same compound, the Ranking score under setting [1] came out at 77.0714.

The compound `O=c1[nH]c(=O)n([C@H]2C[C@H](O)[C@@H](CO)O2)cc1I` [Idoxuridine] displayed a B-score functional assay of -4.488. This compound returned a Ranking score under setting [1] of 91.1921.

As to `CCOC(=O)c1ccc(OC(=O)CCCCCN=C(N)N)cc1.CS(=O)(=O)O` [Gabexate mesilate], the B-score functional assay amounted to 0.072. Further, the Ranking score under setting [1] amounted to 203.005.

Consider `C[C@@](Cc1ccc(O)c(O)c1)(NN)C(=O)O` [Carbidopa], for which the B-score functional assay worked out at 0.686. Moreover, the Ranking score under setting [2] is on record as 597.675.

`CCc1cccc2c3c([nH]c12)C(CC)(CC(=O)O)OCC3` (stereo not drawn) [Etodolac]: the B-score functional assay is reported as -0.274. Moreover, the Ranking score under setting [1] amounted to 112.748.

For the compound `CCOC(=O)N1CCC(=C2c3ccc(Cl)cc3CCc3cccnc32)CC1` [Loratadine], the B-score functional assay is given as -3.222. The compound also had a Ranking score under setting [1] of 78.3326.

In the case of `CN1[C@@H]2CC[C@H]1C[C@@H](OC(=O)c1c[nH]c3ccccc13)C2` [Tropisetron HCl], the B-score functional assay was -1.094. Further, under setting [2], the Ranking score is 543.985.

In turn, `COc1ccccc1OCC(O)COC(N)=O` (stereo not drawn) [Methocarbamol] showed a B-score functional assay of -0.493. Also, under setting [2], the Ranking score worked out at 504.159.

In turn, `CN(C)C/C=C(\c1ccc(Br)cc1)c1cccnc1.Cl.Cl.O` [Zimelidine dihydrochloride monohydrate] showed a B-score functional assay of -1.216. Moreover, under setting [1], the Ranking score is given as 266.786.

Compound `CN(C)CCCC1(c2ccc(F)cc2)OCc2cc(C#N)ccc21` (stereo not drawn) [Citalopram Hydrobromide] returned a B-score functional assay of -1.909. The compound further yielded a Ranking score under setting [1] of 277.496.

As for `CC(CCc1ccccc1)NCC(O)c1ccc(O)c(C(N)=O)c1` (stereo not drawn) [Labetalol hydrochloride], the B-score functional assay came to 2.094. Besides, the Ranking score under setting [2] is 596.712.

With `CC(COc1ccccc1)N(CCCl)Cc1ccccc1` (stereo not drawn) [Phenoxybenzamine hydrochloride], the B-score functional assay is recorded as -0.06. Further, the Ranking score under setting [1] is recorded as 229.8.

Turning to (S)-(-)-Cycloserine, the B-score functional assay is given as -1.227. Under setting [1], the Ranking score was 89.398.

Consider `CCOC(=O)O[C@]1(C(=O)OCCl)CC[C@H]2[C@@H]3CCC4=CC(=O)C=C[C@]4(C)[C@H]3[C@@H](O)C[C@@]21C` [Loteprednol etabonate], for which the B-score functional assay is -2.765. Under setting [1], this compound gave a Ranking score of 211.225.

In turn, `CCN(CC)C(=S)SSC(=S)N(CC)CC` [Disulfiram] returned a B-score functional assay of -4.037. The Ranking score under setting [1] is recorded as 82.3772.

Consider `CC1=C(CC(=O)O)c2cc(F)ccc2/C1=C\c1ccc([S+](C)[O-])cc1` (stereo not drawn) [Sulindac], for which the B-score functional assay is on record as -1.878. The compound further had a Ranking score under setting [1] of 109.727.

Compound `CN1[C@@H]2CC(OC(=O)[C@H](CO)c3ccccc3)C[C@H]1[C@@H]1O[C@@H]12.Cl` (stereo partly drawn) [Scopolamine hydrochloride] registered a B-score functional assay of 0.343. Besides, under setting [2], the Ranking score is on record as 577.314.

Take `O=C1c2ccccc2C(=O)C1c1ccccc1` [Phenindione]: the B-score functional assay is 1.774. Also, the Ranking score under setting [2] is given as 569.166.

Take `CN1CCN(C(=O)OC2c3nccnc3C(=O)N2c2ccc(Cl)cn2)CC1` (stereo not drawn) [Zopiclone]: the B-score functional assay is reported as -0.919. This compound showed a Ranking score under setting [1] of 176.746.

`COC(=O)C1=C(C)NC(C)=C(C(=O)OCC(C)C)C1c1ccccc1[N+](=O)[O-]` (stereo not drawn) [Nisoldipine]: the B-score functional assay was -7.104. For the same compound, under setting [1], the Ranking score came out at 25.6905.
